Values joined by “and” are separate entries in the source; they are usually repeats but may differ in a detail not shown here. Identical values can stand only once. These antisense oligonucleotides have a phosphorothioate backbone; sugars and methylation of C are not fully specified. Some results are limits rather than exact numbers.
Note: test concentration or dose not given here.

One data set has as its target PIK3CD. Conditions: ASO.
AATGAGTGTCATCCCGCCCT: the remaining target (mRNA or protein) (fraction of control) is 0.4 and 0.14.
On to AATTCCCCAGAAAGTGGCCA, for which the remaining target (mRNA or protein) (fraction of control) is 0.74 and 0.5.
Still for that read-out and setting: under ACCAATGTGCTTGGTCCCCA stands ≥ 1 and 0.37; under ACCCACTTGAAAAGTGGAGA, 0.99 and 0.8; under ACTACTGCCTGTTGTCTTTG, ≥ 1 and 0.44.
The same measure, in the same setting: next, ACTGCCTGTTGTCTTTGGAC: 0.74 and 0.44.
Same read-out and setting: under AGACCCCTGTGGGCAGCAGG stands 0.78 and 0.46; under AGCTGCCAGAACTCAGTCTA, 0.53 and 0.48.
Regarding AGTAGGCACCAGGTGACCGC, the remaining target (mRNA or protein) (fraction of control) was 0.77 and 0.67.
Still for that read-out and setting: next, AGTCCACCCCAGGGGGCATC: ≥ 1 and 0.45.
Turning to ATGAAGGAGGCGTTTCCGTT, the remaining target (mRNA or protein) (fraction of control) was 0.81 and 0.32.

The target of a further data set is SMAD3. The following applies: ASO.
In the case of ACAGGCGGCAGTAGATGA, the remaining target (mRNA or protein) (fraction of control) was ≥ 1.
The same measure, in the same setting: under ACATTCGGGTCAACTGGT stands 0.48; under AGAACTGGTGTCTCTACT, 0.51; under AGACCAAATGCCATCCCA, 0.18.
On the same count and under the same terms, next, CCAAGTTATTATGTGCTG: ≥ 1.
In turn, CCATTTCTCCTCCTGCCC registered a remaining target (mRNA or protein) (fraction of control) of 0.62.
CCCCTACCATACTTGATG had a remaining target (mRNA or protein) (fraction of control) of 0.38.
Sequence CCCCTCCGATGTAGTAGA registered a remaining target (mRNA or protein) (fraction of control) of 0.54.
In turn, CCTCCCCATCCCAAGTCT gave a remaining target (mRNA or protein) (fraction of control) of 0.59.
CCTGTTGACATTGGAGAG had a remaining target (mRNA or protein) (fraction of control) of 0.72.
CGATGTAGTAGAGCCGCA displayed a remaining target (mRNA or protein) (fraction of control) of 0.42.
Same read-out and setting: next, CTCCCCAGCCTTTGACGA: 0.54; CTCTCTGGTAGTGGTAGG: 0.8.
The same measure, in the same setting: under CTCTGGGTTTGCTCGTGT stands 0.56; under CTTCCGATGTGTCTCCGT, 0.39.
Same read-out and setting: under GAACACGCACCTCCCAAT stands 0.4.
GAACTCCTGGTTGTTGAA: the remaining target (mRNA or protein) (fraction of control) was ≥ 1.
On the same count and under the same terms, next, GAGGCACTCTGCGAAGAC: 0.49; GCCCTGGTTGACCGACTG: 0.83.
GCCTTCTCGCACCATTTC returned a remaining target (mRNA or protein) (fraction of control) of 0.92.
GCGAGGCGTGGAATGTCT registered a remaining target (mRNA or protein) (fraction of control) of 0.54.
Still for that read-out and setting: under GCGCTGGTTACAGTTGGG stands ≥ 1; under GCGTGGCACCAACACAGG, ≥ 1.
As for GGAGGGCGTGCGGGCGGC, the remaining target (mRNA or protein) (fraction of control) is ≥ 1.
On the same count and under the same terms, under GGCTGTAGTCGTCCAGTG stands 0.65; under GGGAAGTTAGTGTTTTCG, ≥ 1.
Still for that read-out and setting: next, GGGTCGGTGAAGCCATCC: ≥ 1.
The sequence GGTAGGGATTCACGCAGA registered a remaining target (mRNA or protein) (fraction of control) of 0.92.
As to GTGCGGGCGGCGAGGAGC, the remaining target (mRNA or protein) (fraction of control) stood at 0.86.
TCTGGTGGTCACTGGTTT: the remaining target (mRNA or protein) (fraction of control) worked out at 0.64.
On the same count and under the same terms, next, TCTTCTTCCTTGACAACA: 0.92; TCTTGAGTTTCTTGACCA: ≥ 1; TGCAGGTCCAAGTTATTA: 0.81.
With TGCATCGTGCGGGCTCTT, the remaining target (mRNA or protein) (fraction of control) was 0.43.
Same read-out and setting: next, TGCCCGTTCTGCTCGCCC: 0.63.
TGCTCGCCCTTCTTCCAG yielded a remaining target (mRNA or protein) (fraction of control) of 0.61.
The same measure, in the same setting: next, TGGGTTGAGTAGAGTTCC: 0.53; TTAAGCCACCAGAGCAGA: ≥ 1; TTCTTCCAGCCCAGCAGG: ≥ 1.

The target of a further data set is SMAD1. The following applies: ASO.
The sequence AAAGATGAACTCCTTTTC came in with a remaining target (mRNA or protein) (fraction of control) of 0.65.
AAATGACATGAGGCAGTC gave a remaining target (mRNA or protein) (fraction of control) of 0.54.
Take AAGGGCTTCCTGGGTCTG: the remaining target (mRNA or protein) (fraction of control) was found to be 0.53.
On the same count and under the same terms, under ACAGTAGTAGGATGAAAT stands 0.41.
In turn, ACATTCATAATGACAGCA had a remaining target (mRNA or protein) (fraction of control) of 0.59.
The same measure, in the same setting: next, AGCATTCCAGTGGTTTTA: 0.31; AGTGAGGAAACGGGTGGC: 0.28; AGTGGCGTTGAGTGGCAT: 0.75.
Sequence ATGCAAAAGGACAGCAGA gave a remaining target (mRNA or protein) (fraction of control) of 0.57.

Values taken from the OligoGym collection.
